Test results: patent EP0007294A2, “Membrane stabilizing compounds having beta-receptor blocking activity, their preparation, method for treatment of arrhythmic conditions, and pharmaceutical preparations containing same” (priority 1978, dated 1980)
Like-named read-outs stand apart in the source and are kept apart here.

Columns and labels:
ectopics = test: Conscious dogs with ligation of a coronary artery according to Harris: ectopics and convulsions; assay type: in vivo; settings: Canis lupus familiaris, iv.; for ED50: accumulative end dose giving 50% reduction of ectopics, read-out: Conscious dog Harris ligation Ectopics -50%; for ED90: accumulative end dose giving 90% reduction of ectopics, read-out: Conscious dog Harris ligation Ectopics -90%
Source text: (§1) Male beagle dogs, 7-13 kg, undergo two days prior to the test a surgical ligation of a coronary artery. On the day of the test the conscious dog is secured in a canvas sling in a standing position and given increasing doses of the test compounds by intravenous administration. ECG, blood pressure etc are monitored and attention is paid to all CNS-effects. The dogs have almost 100 percent of ectopics prior to administration of the compound to be tested. Effects of the test drug on the frequency of ectopics are calculated from ECG. The accumulative end doses giving 50% and 90% reduction of ectopics as well as the ED50 values which give convulsions (side-effect) are measured and given below in Table 3. The value for convulsions is a mean value for 3-5 dogs.
(§2) x) The value given is the final value in a series of doses 0.5 + 1 + 2 + 4 + 8 mg/kg i.v. giving 50% reduction of ectopics. 30 min interval between doses.
(§3) Table 3: Antiarrythmic effect and CNS-effects of four β-receptor blockers, a membrane stabilizer, and ten new compounds with combined β-blocking and membrane stabilizing effect.

[1] = as above; assay type: in vivo; settings: in vivo
Source text: as §1, §2, §3

[2] = system: ouabain-induced arrhythmias; test: Ouabain-induced arrhythmias in anesthetized guinea-pigs; assay type: in vivo; settings: for A-A EFFECT IN NUMBER OF ANIMALS: animals with antiarrhythmic effect / animals tested; for LOWEST FREQUENCY: frequency of ventricular premature beats after test solution; for ASYSTOLE: time of asystole under continued ouabain; for V-FIB: time of ventricular fibrillation under continued ouabain
Experimental: Guinea-pigs of either.sex (300-400 g) were anesthetized with urethane 1,4 g/kg i.p. and tracheotomized. ECG, lead II was picked up with needle electrodes and was registered continuously throughout the experiment. Two i.v. catheters were inserted: one for the administration of ouabain, the other for the test solution.
The experimental design for the study of antiarrhythmic activities is schematically shown in the head of Table 2. The arrhythmia was induced by automatic infusion of ouabain, 18 µg/kg/60" every two minutes for twelve minutes and thereafter 9 µg/kg/30" every two minutes throughout the whole experiment and the infusion was not stopped until asystole occurred. As soon as the frequency of ventricular premature beats (VPB) had passed 50 per cent, the test solution was given i.v. (0,2 ml/min) during 2 min. (see head of Table 2).

[3] = system: chloroform induced ventricular tachy-cardia; test: Alternative chloroform test on mice: ventricular tachycardia inhibition and ataxia; assay type: in vivo; settings: Mus musculus; sc.; mice, chloroform; groups of 10 animals per dose-level
Experimental: (§4) In an alternative chloroform test on mice the ventricular tachycardia inhibition by the test compounds are observed. Thereby the test solution is given subcutaneous and the animal is observed for CNS-effects for 20 min. The mouse is put into a chamber with chloroform until it stops breathing (approx 30 sec.). The animal is then secured on a cork-board and ECG is monitored. If the ventricular rythm is less than 520 beats per min., the animal was protected against ventricular tachycardia. Groups of 10 animals were tested for each dose-level'and the ED50-values have been calculated therefrom. During the test the side-effect ataxia (incordination of movements) is observed.
(§5) In Table 5, as shown, the new compounds tested exerted antiarrhythmic effects also in this te-st.

[4] = as above; assay type: in vivo; settings: mouse, in vivo
Experimental: as §4, §5

[5] = system: chloroform-induced ventricular arrhythmias; test: Chloroform-induced ventricular arrhythmias (fibrillation) in mice, intraperitoneal dose
Source text: Mice were given an intraperitoneal dose of the test compound. Twenty minutes after dose, they were suffocated in chloroform vapor.- When the animals stopped breathing, the chest was opened to inspect for fibrillation. If the heart was not fibrillating, it was prodded.
Signs of CNS toxicity were noted during the 20-minute interval between dosing and challenge.
"Protected" means number of animals protected against CHC13- induced ventricular fibrillation.

| SMILES | ED50 (ectopics) [mg/kg] | ED90 (ectopics) [mg/kg] | TD50 ([1]; iv., conscious dog, mean value for 3-5 dogs, read-out: ED50 Convulsive) [mg/kg] | A-A EFFECT IN NUMBER OF ANIMALS ([2]; dose 0.3 mg/kg i.v.) | A-A EFFECT IN NUMBER OF ANIMALS ([2]; dose 1.0 mg/kg i.v.) | LOWEST FREQUENCY ([2]; dose 0.3 mg/kg i.v.) [%] | LOWEST FREQUENCY ([2]; dose 1.0 mg/kg i.v.) [%] | ASYSTOLE ([2]; dose 0.3 mg/kg i.v.) [min] | ASYSTOLE ([2]; dose 1.0 mg/kg i.v.) [min] | V-FIB ([2]; dose 0.3 mg/kg i.v.) [min] | V-FIB ([2]; dose 1.0 mg/kg i.v.) | ED50 [3] [mg/kg] | TD50 at 20 min ([4]; sc., mice, observed for 20 min, read-out: Ataxia ED50) [mg/kg] | Number of Animals Dead ([5]; dose 100 mg/kg intraperitoneal, 10 treated) | Number of Animals Protected ([5]; dose 100 mg/kg intraperitoneal, 10 treated, protected against CHCl3-induced ventricular fibrillation) | Number of Animals Convulsive ([5]; mouse, in vivo, ip, 100 mg/kg) | Number of Animals LRR ([5]; mouse, in vivo, ip, 100 mg/kg) | TD50 ([1]; dog, iv) [mg/kg] | TD50 at 20 min ([4]; sc) [mg/kg] |
| --- | --- | --- | --- | --- | --- | --- | --- | --- | --- | --- | --- | --- | --- | --- | --- | --- | --- | --- | --- |
| CC(C)NC[C@@H](O)COc1cccc2ccccc12 [D-Propranolol] | 1 | 4 | 8 | 6/8 | 6/6 | 36±5 | 5±3 | 22 ± 1 | 29 ± 1 | 14 ± 1 | 23 ± 2 min | ~8 | ~30 | – | – | – | – | – | – |
| COCCc1ccc(OCC(O)CNCCc2ccccc2)c(Br)c1 (stereo not shown) [EX 3] | – | – | – | 5/6 | 6/6 | 26±7 | 13±7 | 34 ± 1 | 41 ± 2 | 27 ± 1 | 35 ± 2 min | – | – | – | – | – | – | – | – |
| COCCc1ccc(OCC(O)CNC(C)Cc2ccc(O)cc2)c(Br)c1 (stereo not shown) [EX 4, 3-[1-methyl-2-i4-hydroxyphenyl)-ethylaminol-1-[4-(2-methoxyethyl)-2-bromophenoxy]-propanol-2] | – | – | – | 3/6 | 6/6 | 31±14 | 6±3 | 27 ± 1 | 41 ± 3 | 19 ± 1 | 31±3 (N=4) min | – | – | – | – | – | – | – | – |
| COCCc1ccc(OCC(O)CNCCc2ccccc2)cc1 (stereo not shown) [Ex. 1] | – | – | – | 4/8 | 9/9 | 38±13 | 9±4 | 28 ± 1 | 38 ± 4 | 19 ± 1 | 31 ± 4 min | – | – | 0 | 9 | 1 | 0 | – | – |
| COCc1ccc(OCC(O)CNCc2ccccc2)cc1 (stereo not shown) [Ex. 6, 3-phenylmethylamino-1-[4-methoxymgthylphenoxy]-propanol-2] | 8 | > 16 | – | – | – | – | – | – | – | – | – | ~200 | – | – | – | – | – | 14 | ~70 |
| COCc1ccc(OCC(O)CNCCc2ccccc2)cc1 (stereo not shown) [Ex. 7] | 4 | 8 | – | – | – | – | – | – | – | – | – | ~50 | – | – | – | – | – | > 8 | ~100 |
| COCc1ccc(OCC(O)CNCCCCc2ccccc2)cc1 (stereo not shown) [Ex. 8, 3-[4-phenylbutylamino)-1-(4-methoxymethylphenoxy)-propanol-2] | 4 | > 8 | – | – | – | – | – | – | – | – | – | – | – | – | – | – | – | 8 | – |
| COCCc1ccc(OCC(O)CNCc2ccccc2)cc1 (stereo not shown) [Ex. 9, 3-phenylmethylamino-1-[4-(2-methoxyethyl)phenoxy]-propanol-2] | 2 | 4 | – | – | – | – | – | – | – | – | – | 35 | – | – | – | – | – | 8 | 60 |
| COCCc1ccc(OCC(O)CNCCCc2ccccc2)cc1 (stereo not shown) [Ex. 10, 3-(3-phenylpropylamino)-1-[4-(2-methoxyethyl)phenoxy]-propanol-2] | 2 | 4 | – | – | – | – | – | – | – | – | – | 3 | – | – | – | – | – | > 8 | > 50 |
